From patent US8546090B2, “SIRT4 activities” (Massachusetts Institute of Technology, priority 2005, dated 2013)

Assays:
MIN6 cells = test: Insulin secretion assay in MIN6 cells (ELISA); format: cell-based, mouse
Experimental: FIG. 4. The role of Sirt4 in insulin secretion. FIG. 4A. The levels of Sirt4 were reduced in MIN6 cells infected with virus that contained Sirt4 RNAi sequences compared to cells infected with pSUPER. FIG. 4B. Insulin secretion was measured from control or RNAi MIN6 cells. Cells were pre-incubated with KRB buffer containing 3 mM glucose, then cells were shifted to buffer containing either 3 mM (open bars) or 16.7 mM glucose (filled bars). Insulin in the buffer was measured by ELISA after a 45 min incubation at 37° C. FIG. 4C. Insulin remaining inside cells was measured at the end of the insulin secretion assays by ELISA.
FIG. 7. Elevated glutamate dehydrogenase activity contributes to increased insulin secretion in Sirt4 RNAi cells. FIG. 7A. MIN6 cells were co-infected with RNAi for Sirt4 and glutamate dehydrogenase, and protein levels were compared to control infections. FIG. 7B. Insulin secretion assays were performed in double-infected or control cells as described previously. FIG. 7C. Insulin secretion assays were performed in control or Sirt4 RNAi treated cells in the presence or absence of BCH, an activator of glutamate dehydrogenase.
MIN6 cells were plated in the wells of a 12-well plate at least 24-hours before secretion assays. […] Insulin concentration was measured by ELISA (Alpco Diagnostics; Windham, N.H.).

[1] = test system: bovine recombinant glutamate dehydrogenase; test: Glutamate dehydrogenase assay after incubation with Sirt4; format: biochemical
Experimental: FIG. 6. Glutamate dehydrogenase inhibition by Sirt4. FIG. 6A. The enzymatic activity of glutamate dehydrogenase ([…]) was measured before (open bars, T=0) after a 60 min incubation (filled bars, T=60) at 37° C. with hSirt4-FLAG (50 ng) or a buffer control in the presence of 1 mM NAD^+. Experiments were replicated 3-5 times. FIG. 6B. Inhibition of glutamate dehydrogenase by Sirt4 requires 1 mM NAD^+. Glutamate dehydrogenase (50 mg) was incubated with Sirt4 at 37° C. in the presence (pink) or absence (blue) of 1 mM NAD^+. Aliquots (1 ml) were removed at T=0, 5, 15, 30, 60, or 120 min, and glutamate dehydrogenase activity was measured for each time point. FIG. 6C. The activity of glutamate dehydrogenase was measure in mitochondrial lysates (30 mg) from control or Sirt4 RNAi cells. Experiments were performed 3-5 times using cell lines from two separate infections.
Glutamate dehydrogenase (50 μg; Ultrapure from Sigma) was incubated with or without Sirt4 (10 ng) in […] of ADP-ribosylation buffer (50 mM Tris pH 8.0, 10 mM DTT, 150 mM NaCl) in the presence or absence of 1 mM NAD or 1 mM nicotinamide at 37° C. for the indicated times. Then, an aliquot of the reaction was assayed for glutamate dehydrogenase activity. Activity assays were performed at 25° C. using a BioSpec-1601 spectrophotometer (Shimadzu Scientific Instruments, Inc; Braintree, Mass.) at A340 based on the oxidation of NADH as described previously. Data was collected for 5-10 min. at 10 sec. intervals. At the end of each experiment, less than 10% of substrates had been depleted.
Sirt4 or a buffer control was incubated with bovine recombinant glutamate dehydrogenase for one hour in the presence of NAD. Then, the glutamate dehydrogenase activity was assessed by monitoring the disappearance of NADH (A340). […] To verify that this inhibition was dependent on the availability of NAD^+, we incubated Sirt4 with or without NAD^+ with glutamate dehydrogenase for various times. […]

Row | Compound | insulin secretion with BCH and 16.7 mM glucose compared to 16.7 mM glucose alone (MIN6 cells; Sirt4 RNAi treated MIN6 cells) | insulin secretion with BCH and 16.7 mM glucose compared to 16.7 mM glucose alone (MIN6 cells; control MIN6 cells) | inhibition of glutamate dehydrogenase activity ([1]; after incubating for 12 hours) | enzymatic activity of glutamate dehydrogenase ([1]; incubated one hour in the presence of NAD, versus buffer control) | inhibition of glutamate dehydrogenase activity ([1]; within 2 hours, in the presence of NAD+)
1 | NC1(C(=O)O)CC2CCC1C2 (centres unmarked) [BCH] | did not secrete more insulin | enhanced insulin secretion |  |  | 
2 | Sirt4: human Sirt4 with C-terminal FLAG, immunoprecipitated from 293T cells; ADP-ribosyltransferase |  |  | more than 90% | significantly reduced | 50%
